Source: US20100075935A1, “XANTHINE MODULATORS OF ADENOSINE A1 RECEPTOR” (Auspex Pharmaceuticals, Inc., priority 2008, published 2010)
One block for each compound: values may come before it.

Experiments:
[1] = test system: acute heart failure patients; settings: cited from earlier work
[2] = In vitro liver microsomal stability assay; type: in vitro ADME; settings: human liver microsomes 0.5 mg/mL, 1 μM compound, 37° C., NADPH-generating system, compared with non isotopically enriched rolofylline, '+' marks one bin of −25%-0%, 0%-50%, 50%-150%
Protocol: Liver microsomal stability assays were conducted at 0.5 mg per mL liver microsome protein with an NADPH-generating system in 2% NaHCO3 (2.2 mM NADPH, 25.6 mM glucose 6-phosphate, 6 units per mL glucose 6-phosphate dehydrogenase and 3.3 mM MgCl2). Test compounds were prepared as solutions in 20% acetonitrile-water and added to the assay mixture (final assay concentration 1 μM) and incubated at 37° C. Final concentration of acetonitrile in the assay should be <1%. […] were taken out at times 0, 7.5, 15, 22.5, 30 minutes, and diluted with ice cold acetonitrile (200 μL) to stop the reactions. Samples were centrifuged at 12,000 RPM for 10 min to precipitate proteins. Supernatants were transferred to micro centrifuge tubes and stored for LC/MS/MS analysis of the degradation half-life of the test compounds. […] The degradation half-lives of Examples 1 through 4 (isotopically enriched compounds) as compared with non isotopically enriched rolofylline are shown in Table 1.

[3] = rolofylline 30 mg daily for 3 days

Compound: CCCn1c(=O)c2[nH]c(C34CC5CC(CC3C5)C4)nc2n(CCC)c1=O [Rolofylline, 8-(hexahydro-2,5-methano-pentalen-3a-yl)-1,3-dipropyl-3,7-dihydro-purine-2,6-dione]
- urine output at 6 hours ([1]; acute heart failure patients, 6 hours): increased urine output at 6 hours
- overall urine output over 24 hours ([1]; acute heart failure patients, 24 hours): did not increase overall urine output over 24 hours
- patients with persistent renal impairment ([1]; rolofylline 30 mg daily for 3 days, acute heart failure patients): 8%
- dyspnea improvement versus placebo [1, 3]: superior to placebo
- instances of death, heart failure readmission, worsening heart failure or persistent renal impairment versus placebo [1, 3]: less instances

Compound: [2H]C([2H])([2H])C([2H])([2H])C([2H])([2H])n1c(=O)n(CCC)c(=O)c2[nH]c(C34CC5CC(CC3C5)C4)nc21 [Example 1, 8-(Noradamantyl)-1-propyl-3-(d7-propyl)-3,7-dihydro-purine-2,6-dione]
- % increase of HLM degradation half-life [2]: + (−25%-0%)

Compound: [2H]C([2H])([2H])C([2H])([2H])C([2H])([2H])n1c(=O)c2[nH]c(C34CC5CC(CC3C5)C4)nc2n(C([2H])([2H])C([2H])([2H])C([2H])([2H])[2H])c1=O [Example 2, 8-(Noradamantyl)-1-(d7-propyl)-3-(d7-propyl)-3,7-dihydro-purine-2,6-dione]
- % increase of HLM degradation half-life [2]: + (−25%-0%)

Further lines, results first:

- % increase of HLM degradation half-life [2]: + (−25%-0%)
Compound: [2H]C([2H])(CC)n1c(=O)c2[nH]c(C34CC5CC(CC3C5)C4)nc2n(CCC)c1=O [Example 3, 8-(Noradamantyl)-1-(1,1-d2-propyl)-3-propyl-3,7-dihydro-purine-2,6-dione]

- % increase of HLM degradation half-life [2]: + (−25%-0%)
Compound: [2H]C([2H])([2H])C([2H])([2H])C([2H])([2H])n1c(=O)c2[nH]c(C34CC5CC(CC3C5)C4)nc2n(CCC)c1=O [Example 4, 8-(Noradamantyl)-1-(d7-propyl)-3-propyl-3,7-dihydro-purine-2,6-dione]
